Test system: PMA-differentiated THP-1 cells
Assay: IL-1β production in PMA-differentiated THP-1 cells stimulated with gramicidin (hTHP-1 assay containing 2% fetal bovine serum; Procedures 1 and 2)
Type: cell-based, human
Settings: Homo sapiens, THP-1, Table B1; 2% fetal bovine serum; class symbols; read-out: Average IC50 of compounds in hTHP-1 assay: hTHP-1 IC50
Outline: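 IL-1β release from PMA-differentiated THP-1 macrophage-like cells was triggered by 5 μM gramicidin for 2 h after 1 h compound exposure, then measured by HTRF.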

`CC1CCc2c1nc1c(c2NC(=O)N=S(N)(=O)c2cc(C(C)(C)O)cs2)CCC1` (single isomer, unassigned) [Compound 141ab, (R,S) or (R,R)-4-(2-hydroxypropan-2-yl)-N′-((3-methyl-1,2,3,5,6,7-hexahydro-dicyclopenta[b,e]pyridin-8-yl)carbamoyl)thiophene-2-sulfonimidamide] and `CC(C)(O)c1ccc(S(N)(=O)=NC(=O)Nc2c3c(nc4c2CCC4)CCC3)s1` (single isomer, unassigned) [Compound 149a, (R) or (S)-N′-((1,2,3,5,6,7-hexahydrodicyclo-penta[b,e]pyridin-8-yl)carbamoyl)-5-(2-hydroxypropan-2-yl)thiophene-2-sulfonimidamide] fall in the same range of IC50: 0.2 to 1 µM for the first, 0.2 to 1 µM for the second.

`CC1(C)Cc2nc3c(c(NC(=O)N=S(N)(=O)c4cnc(C(C)(C)O)s4)c2C1)CCC3` (single isomer, unassigned) [Compound 147b, (R) or (S)-N′-((2,2-dimethyl-1,2,3,5,6,7-hexahydro-dicyclopenta[b,e]pyridin-8-yl)carbamoyl)-2-(2-hydroxypropan-2-yl)thiazole-5-sulfonimidamide] and `CC(C)(O)c1nc(S(N)(=O)=NC(=O)Nc2c3c(nc4c2CCC4)CCC3)cs1` (single isomer, unassigned) [Compound 154a, (R) or (S)-N′-((1,2,3,5,6,7-hexahydrodicyclo-penta[b,e]pyridin-8-yl)carbamoyl)-2-(2-hydroxypropan-2-yl)thiazole-4-sulfonimidamide] fall in the same range of IC50: 1 to 5 µM for the first, 1 to 5 µM for the second.

Same assay, conditions: Homo sapiens, THP-1, Table B1; 2% fetal bovine serum; numeric bounds; read-out: Average IC50 of compounds in hTHP-1 assay: hTHP-1 IC50

`CC1CCc2c1nc1c(c2NC(=O)N=S(N)(=O)c2ncc(C(C)(C)O)s2)CCC1` (single isomer, unassigned) [Compound 140bb, (S,R) or (S,S)-5-(2-hydroxypropan-2-yl)-N′-((3-methyl-1,2,3,5,6,7-hexa-hydrodicyclo-penta[b,e]pyridin-8-yl)carbamoyl)thiazole-2-sulfonimidamide] and `CC(C)(O)c1ccc(S(N)(=O)=NC(=O)Nc2c3c(nc4c2CCC4)CCC3)s1` (single isomer, unassigned) [Compound 149b, (S) or (R)-N′-((1,2,3,5,6,7-hexahydrodicyclo-penta[b,e]pyridin-8-yl)carbamoyl)-5-(2-hydroxypropan-2-yl)thiophene-2-sulfonimidamide] cannot be ordered by IC50: over 30 µM for the first, over 30 µM for the second.

`CC(C)(O)c1ncc(S(N)(=O)=NC(=O)Nc2cc(-c3ccccc3)nc3c2CCC3)s1` (single isomer, unassigned) [Compound 142a, (R) or (S)-2-(2-hydroxy-propan-2-yl)-N′-((2-phenyl-6,7-dihydro-5H-cyclopenta[b]pyridin-4-yl)carbamoyl)thiazole-5-sulfonimidamide] and `Cc1c(-c2ccccc2)nc2c(c1NC(=O)N=S(N)(=O)c1cnc(C(C)(C)O)s1)CCC2` (single isomer, unassigned) [Compound 143a, (S) or (R)-2-(2-hydroxy-propan-2-yl)-N′-((3-methyl-2-phenyl-6,7-dihydro-5H-cyclopenta[b]pyridin-4-yl)carbamoyl)thiazole-5-sulfonimidamide] cannot be ordered by IC50: over 30 µM for the first, over 30 µM for the second.

`CC1(C)Cc2nc3c(c(NC(=O)N=S(N)(=O)c4cnc(C(C)(C)O)s4)c2C1)CCC3` (single isomer, unassigned) [Compound 147a, (S) or (R)-N′-((2,2-dimethyl-1,2,3,5,6,7-hexahydrodicyclo-penta[b,e]pyridin-8-yl)carbamoyl)-2-(2-hydroxypropan-2-yl)thiazole-5-sulfonimidamide] and `CC(C)(O)c1nc(S(N)(=O)=NC(=O)Nc2c3c(nc4c2CCC4)CCC3)cs1` (single isomer, unassigned) [Compound 154b, (S) or (R)-N′-((1,2,3,5,6,7-hexahydrodicyclo-penta[b,e]pyridin-8-yl)carbamoyl)-2-(2-hydroxypropan-2-yl)thiazole-4-sulfonimidamide] cannot be ordered by IC50: over 30 µM for the first, over 28 µM for the second.

Same assay, conditions: Table B1; 2% fetal bovine serum; class symbols; read-out: Average IC50 of compounds in hTHP-1 assay: hTHP-1 IC50

Compared with `CC1CCc2c1nc1c(c2NC(=O)N=S(N)(=O)c2cc(C(C)(C)O)cs2)CCC1` (single isomer, unassigned) [Compound 141a, (S,R/S) or (R,R/S)-4-(2-hydroxypropan-2-yl)-N′-((3-methyl-1,2,3,5,6,7-hexahydro-dicyclopenta[b,e]pyridin-8-yl)carbamoyl)thiophene-2-sulfonimidamide], `CC(C)(O)c1ncc(S(N)(=O)=NC(=O)Nc2c3c(nc4c2CCC4(C)C)CCC3)s1` (single isomer, unassigned) [Compound 153a, (S) or (R)-N′-((3,3-dimethyl-1,2,3,5,6,7-hexahydro-dicyclopenta[b,e]pyridin-8-yl)carbamoyl)-2-(2-hydroxypropan-2-yl)thiazole-5-sulfonimidamide] is higher in IC50: 1 to 5 µM for the first, 5 to 30 µM for the second. The first is the more potent here.

Compared with `CC1CCc2c1nc1c(c2NC(=O)N=S(N)(=O)c2cc(C(C)(C)O)cs2)CCC1` (single isomer, unassigned) [Compound 141aa, (R,R) or (R,S)-4-(2-hydroxypropan-2-yl)-N′-((3-methyl-1,2,3,5,6,7-hexahy-drodicyclopenta[b,e]pyridin-8-yl)carbamoyl)thiophene-2-sulfonimidamide], `CC(C)(O)c1ncc(S(N)(=O)=NC(=O)Nc2c3c(nc4c2CCC4(C)C)CCC3)s1` (single isomer, unassigned) [Compound 153b, (R) or (S)-N′-((3,3-dimethyl-1,2,3,5,6,7-hexahydro-dicyclopenta[b,e]pyridin-8-yl)carbamoyl)-2-(2-hydroxypropan-2-yl)thiazole-5-sulfonimidamide] is higher in IC50: 0.008 to 0.04 µM for the first, 0.04 to 0.2 µM for the second. The first is the more potent here.

First: CC1CCc2c1nc1c(c2NC(=O)N=S(N)(=O)c2cc(C(C)(C)O)cs2)CCC1 (single isomer, unassigned) [Compound 141b, (R,R/S) or (S,R/S)-4-(2-hydroxypropan-2-yl)-N′-((3-methyl-1,2,3,5,6,7-hexahydro-dicyclopenta[b,e]pyridin-8-yl)carbamoyl)thiophene-2-sulfonimidamide]
Second: CC(C)(O)c1nc(CO)c(S(N)(=O)=NC(=O)Nc2c3c(nc4c2CCC4)CCC3)s1 (single isomer, unassigned) [Compound 150a, (S) or (R)-N′-((1,2,3,5,6,7-hexahydrodicyclo-penta[b,e]pyridin-8-yl)carbamoyl)-4-(hydroxymethyl)-2-(2-hydroxypropan-2-yl)thiazole-5-sulfonimidamide]
The IC50 of the first is lower: 0.04 to 0.2 µM for the first, 5 to 30 µM for the second. The first is the more potent here.

Compared with `CC1CCc2c1nc1c(c2NC(=O)N=S(N)(=O)c2cc(C(C)(C)O)cs2)CCC1` (single isomer, unassigned) [Compound 141ba, (S,S) or (S,R)-4-(2-hydroxypropan-2-yl)-N′-((3-methyl-1,2,3,5,6,7-hexahy-drodicyclopenta[b,e]pyridin-8-yl)carbamoyl)thiophene-2-sulfonimidamide], `CC(C)(O)c1nc(CO)c(S(N)(=O)=NC(=O)Nc2c3c(nc4c2CCC4)CCC3)s1` (single isomer, unassigned) [Compound 150b, (R) or (S)-N′-((1,2,3,5,6,7-hexahydrodicyclo-penta[b,e]pyridin-8-yl)carbamoyl)-4-(hydroxymethyl)-2-(2-hydroxypropan-2-l)thiazole-5-sulfonimidamide] is lower in IC50: 1 to 5 µM for the first, 0.2 to 1 µM for the second. The second is the more potent here.

First: CC1CCc2c1nc1c(c2NC(=O)N=S(N)(=O)c2cc(C(C)(C)O)cs2)CCC1 (single isomer, unassigned) [Compound 141bb, (S,R) or (S,S)-4-(2-hydroxypropan-2-yl)-N′-((3-methyl-1,2,3,5,6,7-hexahy-drodicyclopenta[b,e]pyridin-8-yl)carbamoyl)thiophene-2-sulfonimidamide]
Second: CC(C)c1c(-c2ccccc2)nc2c(c1NC(=O)N=S(N)(=O)c1cnc(C(C)(C)O)s1)CCC2 (single isomer, unassigned) [Compound 145a, (R) or (S)-2-(2-hydroxy-propan-2-yl)-N′-((3-isopropyl-2-phenyl-6,7-dihydro-5H-cyclopenta[b]pyridin-4-yl)carbamoyl)thiazole-5-sulfonimidamide]
The IC50 of the first is higher: 5 to 30 µM for the first, 0.2 to 1 µM for the second. The second is the more potent here.

First: CC(C)c1c(-c2ccccc2)nc2c(c1NC(=O)N=S(N)(=O)c1cnc(C(C)(C)O)s1)CCC2 (single isomer, unassigned) [Compound 145b, (S) or (R)-2-(2-hydroxy-propan-2-yl)-N′-((3-isopropyl-2-phenyl-6,7-dihydro-5H-cyclopenta[b]pyridin-4-yl)carbamoyl)thiazole-5-sulfonimidamide]
Second: CC(C)c1ncc(F)c(C(C)C)c1NC(=O)N=S(N)(=O)c1cc(C(C)(C)O)cs1 (single isomer, unassigned) [Compound 148a, (R) or (S)-N′-((5-fluoro-2,4-diisopropylpyridin-3-yl)carbamoyl)-4-(2-hy-droxypropan-2-yl)thiophene-2-sulfonimidamide]
The IC50 of the first is higher: 1 to 5 µM for the first, 0.2 to 1 µM for the second. The second is the more potent here.

`CC(C)c1ncc(F)c(C(C)C)c1NC(=O)N=S(N)(=O)c1cc(C(C)(C)O)cs1` (single isomer, unassigned) [Compound 148b, (S) or (R)-N′-((5-fluoro-2,4-diisopropylpyridin-3-yl)carbamoyl)-4-(2-hydroxypropan-2-yl)thiophene-2-sulfonimidamide] gave an IC50 of 1 to 5 µM.

Same assay, conditions: Table B1; 2% fetal bovine serum; numeric bounds; read-out: Average IC50 of compounds in hTHP-1 assay: hTHP-1 IC50

`CC(C)(O)c1ncc(S(N)(=O)=NC(=O)Nc2cc(-c3ccccc3)nc3c2CCC3)s1` (single isomer, unassigned) [Compound 142b, (S) or (R)-2-(2-hydroxy-propan-2-yl)-N′-((2-phenyl-6,7-dihydro-5H-cyclopenta[b]pyridin-4-yl)carbamoyl)thiazole-5-sulfonimidamide] and `Cc1c(-c2ccccc2)nc2c(c1NC(=O)N=S(N)(=O)c1cnc(C(C)(C)O)s1)CCC2` (single isomer, unassigned) [Compound 143b, (R) or (S)-2-(2-hydroxy-propan-2-yl)-N′-((3-methyl-2-phenyl-6,7-dihydro-5H-cyclopenta[b]pyridin-4-yl)carbamoyl)thiazole-5-sulfonimidamide] cannot be ordered by IC50: over 30 µM for the first, over 30 µM for the second.
